Converted amounts (≈) assume the structure as drawn. Where two headings read alike, the source gives them in different places.
Legend:
[1] = MTT cytotoxicity assay; type: cell-based; conditions: African green monkey, Vero E6 cells, read-out: cytotoxic concentration 50 (CC50)
Experimental: It was performed to calculate the newly synthesised candidates’ minimum concentrations that cause 50% toxicity to the cells (CC50). First, the newly synthesised derivatives were dissolved in ddH2O with 10% DMSO and then diluted with Dulbecco's Modified Eagle's Medium (DMEM) to the desired concentrations. The MTT assay method was performed with minor changes using VERO-E6 cells (ready for the virus propagation) to be applied in other experiments. The complete methodology was elucidated in the Supplementary Data (SI2).
(§1) SI 2. MTT cytotoxicity assay.
(§2) The VERO-E6 cells were kept in 96 well-plates at 37°C in 5% CO2 for 24 h to be cultivated. The tested compounds were diluted with DMEM in HA plate in triplicates as mentioned before and then poured onto the prepared cells after washing twice by sterile 1x phosphate buffer saline (PBS). 24 h later, the cell monolayers were washed three times with sterile 1x PBS after removal of the supernatant followed by the addition of the MTT solution into each individual well (20 µl of 5 mg/ml stock solution) which was kept at 37°C for 4 h. The formed formazan crystals were dissolved using an acidified isopropanol (200 µl) and the absorbance of their solutions were recorded through a multi-well plate reader (λmax = 540 nm) against a reference wavelength (λmax= 620 nm). Finally, the cytotoxicity % of the tested compounds compared to the control cells (untreated cells) was calculated as follow:
(§3) % Cytotoxicity = (the absorbance of untreated cells − absorbance of treated cells) X 100 […]
(§4) SI 3. Inhibitory concentration 50 (IC50) determination.
(§5) The Vero-E6 cells (2.4×104) were kept overnight at 37°C in 5% CO2 inside 96-well tissue culture plates. 1x PBS solution was used to wash the cell monolayers for only one time which were then treated with different serial dilutions of the examined compounds together with a fixed dilution from the virus (hCoV-19/Egypt/NRC-03/2020 (Accession Number on GSAID: EPI_ISL_430820)) following TCID50 test and kept at RT for 1 h before starting incubation. Also, the cell monolayers were subjected to DMEM (100 μl) with different concentrations of the test samples and virus and left at 37°C for 72 h in a 5% CO2. Then, 4% paraformaldehyde (100 μl) was used for cell fixation (2 h) followed by the staining step with 0.1% crystal violet in distilled H2O (50 μl) at RT for 15 min. Absolute CH3OH (100 μl) was added to dissolve the crystal violet dye per well to measure the optical density of the produced color using Anthos Zenyth 200rt plate reader at 570 nm.1 The IC50 value for each tested compound which is corresponding to its minimum concentration required to reduce the virus infectivity by 50% in comparison to the virus control was calculated.

[2] = system: SARS-CoV-2 [hCoV-19/Egypt/NRC-03/2020]; assay: SARS-CoV-2 inhibitory assay (IC50 determination, crystal violet) in Vero E6 cells; type: cell-based
Experimental: The IC50 for each examined compound (3a–g) which is equivalent to the minimum concentration to inhibit the virus infectivity by 50% compared to the virus control was calculated. The full methodology was depicted in the Supplementary Data (SI3).
as §1, §2, §3, §4, §5

[3] = target: SARS-CoV-2 Mpro (Severe acute respiratory syndrome coronavirus 2, UniProt P0DTD1); assay: SARS-CoV-2 Mpro assay (3CL Protease Assay Kit); type: biochemical
From the text: The Mpro activity was investigated using the 3CL Protease Assay Kit. The applied protocol and methodology were depicted in the Supplementary Data (SI4). Herein, the present assay was established to assess the newly synthesised candidates (3a–g) inhibitory effects on the SARS-CoV-2 Mpro enzyme as a recommended mechanism of action.
SI 4. Methodology and protocol of 3CL Protease (SARS-CoV-2) assay.
The 3CL Protease Assay Kit is designed to measure 3CL Protease activity for screening and profiling applications, in a homogeneous assay with no time-consuming washing steps. The kit comes in a convenient 96-well format, with purified 3CL Protease, fluorogenic substrate, and 3CL Protease assay buffer for 100 enzyme reactions. 3CL inhibitor GC376 is also included as a positive control.
Add 0.5 M DTT to 3CL Protease Assay Buffer so final DTT concentration is 1 mM. For example, add 10 μl of 0.5 M DTT to 5 ml assay buffer. (DTT should be added just before use. Prepare only enough DTT-containing buffer as required for the assay. Store the remaining assay buffer at - […]
2) Thaw 3CL Protease on ice. Upon first thaw, briefly spin tube containing enzyme to recover the full content of the tube. Aliquot 3CL Protease into single use aliquots. Store remaining undiluted enzyme in aliquots at -80°C. Note: 3CL Protease enzyme is sensitive to freeze/thaw cycles.
3) Dilute 3CL Protease in Assay buffer (with 1 mM DTT) at 3-5 ng/μl (90-150 ng per reaction).
4) Add 30 μl diluted 3CL Protease enzyme solution to wells designated as “Positive Control”, “Inhibitor Control” and “Test Sample”. Add 30 μl Assay buffer (with 1 mM DTT) to the “Blank” wells.
Component Positive Test Sample Inhibitor Blank
Assay Buffer (with DTT) − − − 30 μl […]
Inhibitor Buffer (no inhibitor) 10 μl − − 10 μl […]
5) Dilute 50 μg GC376 in 200 μl water to obtain a 500 μM solution. Aliquot and store remaining solution in aliquots at -80°C. Add 10 μl GC376 (500 μM) to the wells labeled “Inhibitor Control”.
6) Prepare the inhibitor solution.
The final concentration of DMSO in the assay should not exceed 1%. If the inhibitor compound is dissolved in DMSO, make a 100-fold higher concentration of the compound than the highest […]
concentration you want to test in DMSO. Then make a 20-fold dilution in 1X assay buffer (at this step the compound concentration is 5-fold higher than the final concentration).
If the inhibitor compound is dissolved in water, make a solution of the compound 5-fold higher than the final concentration in 3CL Protease assay buffer (with 1 mM DTT). For example, diluting 50 μg GC376 in 200 μl water (step 5) creates a 500 μM solution. Adding 10 ul to the assay (final volume 50 μl) results in a 100 μM final concentration.
7) Add 10 μl inhibitor to each well designated “Test Sample”. Add 10 μl 1X assay buffer or 5% DMSO (depending on which inhibitor solution is used) to “Blank” and “Positive Control” wells.
8) Preincubate enzyme with the inhibitor for 30 min at room temperature with slow shaking.
9) Dilute 5 mM 3CL Protease substrate 1:20 in assay buffer with DTT, to make a 250 μM solution.
Dilute only enough as is required for the assay.
10) Start reaction by adding 10 μl of the substrate solution to each well (Final concentration of the 3CL Protease substrate in a 50 μl reaction is 50 μM).
11) Incubate at room temperature for overnight. Seal the plate with the plate sealer. Measure the fluorescence intensity in a microtiter plate-reading fluorimeter capable of excitation at a wavelength 360 nm and detection of emission at a wavelength 460 nm. The fluorescence intensity can also be measured kinetically. “Blank” value is subtracted from all other values.
SI 5. Molecular dynamics (MD) simulations.
The MD simulations were carried out using Desmond simulation package of Schrödinger LLC.2 The NPT ensemble with the temperature 300 K and a pressure 1 bar was applied in all runs. The simulation length was 100 ns with a relaxation time 1 ps for the ligands. […]

[4] = design: method as in PMID 34641339; conditions: single-dose administration; cited from earlier work
[5] = system: SARS-CoV-2; design: method as in PMID 33352056; conditions: in vitro assessment; read-out: EC50 against SARS-CoV-2; cited from earlier work
[6] = Severe acute respiratory syndrome coronavirus 2, Vero C1008, read-out: IC50 (anti-SARS-CoV-2 activity)
[7] = Severe acute respiratory syndrome coronavirus 2, Vero C1008, Vero E6 cells, hCoV-19/Egypt/NRC-03/2020, read-out: IC50 (anti-SARS-CoV-2 activity)
[8] = values used for multiple linear regression, read-out: IC50 (Table 4, regression model; SARS-CoV-2 Mpro values) (converted)
[9] = 3CL Protease Assay Kit, read-out: SARS-CoV-2 Mpro IC50 (converted)

| Compound | CC50 at 24 h [1] [mg/L] | IC50 [2, 6] | IC50 [2, 7] [mg/L] | IC50 [3, 8] [µM] | selectivity index (SI = CC50/IC50) ([2]; Vero E6 cells) | IC50 [3, 9] [µM] | biological t1/2 [4] [h] | mean Cmax [4] [µg/mL] | EC50 [5] [µM] |
| --- | --- | --- | --- | --- | --- | --- | --- | --- | --- |
| O=C(Nc1ncc([N+](=O)[O-])s1)[C@@H]1CCCN1C(=O)OCc1ccccc1 [Compound 3f, Benzyl (S)-2-((5-nitrothiazol-2-yl)carbamoyl)pyrrolidine-1-carboxylate] | 2800 (≈ 7.44 mM) | 3330 µM | 1250 | 59.4 |  |  |  |  |  |
| O=C(CNC(=O)OCc1ccccc1)Nc1ncc([N+](=O)[O-])s1 [Compound 3b, Benzyl (2-((5-nitrothiazol-2-yl)amino)-2-oxoethyl)carbamate] | 1850 (≈ 5.51 mM) | 519 µM | 175 |  | 10 | 15.2 |  |  |  |
| CC(C)C(=O)OC[C@H]1O[C@@H](n2ccc(NO)nc2=O)[C@H](O)[C@@H]1O [molnupiravir] |  |  |  |  |  |  | 7 | 0.0132 |  |
| O=C(N[C@@H](Cc1ccccc1)C(=O)Nc1ncc([N+](=O)[O-])s1)OCc1ccccc1 [Compound 3e, Benzyl (S)-(1-((5-nitrothiazol-2-yl)amino)-1-oxo-3-phenylpropan-2-yl)carbamate] | 2040 (≈ 4.78 mM) | 3010 µM | 1280 | 38.9 |  |  |  |  |  |
| CC(C)[C@H](NC(=O)OCc1ccccc1)C(=O)Nc1ncc([N+](=O)[O-])s1 [Compound 3d, Benzyl (S)-(3-methyl-1-((5-nitrothiazol-2-yl)amino)-1-oxobutan-2-yl)carbamate] | 1200 (≈ 3.18 mM) | > 1200 mg/L |  | 235 |  |  |  |  |  |
| CC(=O)Oc1ccccc1C(=O)Nc1ncc([N+](=O)[O-])s1 [nitazoxanide] |  |  |  |  |  |  |  |  | 2.12 |
| C[C@H](NC(=O)OCc1ccccc1)C(=O)Nc1ncc([N+](=O)[O-])s1 [Compound 3c, Benzyl (S)-(1-((5-nitrothiazol-2-yl)amino)-1-oxopropan-2-yl)carbamate] | 2120 (≈ 6.05 mM) | 1990 µM | 698 | 34 | 3 |  |  |  |  |
| O=C(N[C@@H](Cc1c[nH]c2ccccc12)C(=O)Nc1ncc([N+](=O)[O-])s1)OCc1ccccc1 [Compound 3g, Benzyl (S)-(3-(1H-indol-3-yl)-1-((5-nitrothiazol-2-yl)amino)-1-oxopropan-2-yl)carbamate] | 1630 (≈ 3.49 mM) | > 1630 mg/L |  | 110 |  |  |  |  |  |
| Cc1ccc(C(=O)Nc2ncc([N+](=O)[O-])s2)cc1 [Compound 3a, 4-Methyl-N-(5-nitrothiazol-2-yl)benzamide] | 1470 (≈ 5.57 mM) | 5230 µM | 1380 |  |  | 17.7 |  |  |  |

Reference: article PMC9344964 (Journal of Enzyme Inhibition and Medicinal Chemistry, 2022)
